Patent US8314088B2, “Pyrazinooxazepine derivatives” (Takeda Pharmaceutical Company Limited, priority 2009, dated 2012)

What was measured:
Male F344 rats = test: obesity: food consumption after single gavage dose (Experimental Example 6a); assay type: in vivo, rat; conditions: 0.5 mg/mL in 0.5% methylcellulose, 2 mL/kg by gavage; 24 hr after administration; obese F344 rats on high-fat diet
Description: Experimental Example 6a The effect of the compound of the present invention for obesity was measured using the food consumption calculated as follows as an index. Male F344 rats (CLEA Japan, Inc.) were purchased at 5 weeks of age, and raised by groups on a solid high-fat diet with fat content 45 kcal % (D12451, Research Diets). When sufficient obesity was observed (40 to 60-week-old), they were raised singly, and given a powder high-fat diet with lipid content 45 kcal % […], Research Diets) in a feeder. The rats were grouped using body weight and food consumption (18:00-8:00) one day before administration as indices. […] A 0.5% methylcellulose solution was administered to the control group. After administration, a previously-weighed feeder was placed in the breeding cage. The feeder was weighed 24 hr after the administration and the food consumption was calculated.

SD female rats = test: stress urinary incontinence: leak point pressure before and after administration (Experimental Example 5a); assay type: in vivo, rat; conditions: i.v., spinal cord-transected SD female rats
Description: The effect of the compound of the present invention for stress urinary incontinence was measured by comparing the leak point pressure before and after the administration of the compound as shown below. SD female rats (body weight 200-270 g) were anesthetized with urethane (Wako Pure Chemical Industries, Ltd.), and the spinal cord was cut at T8-9 level to eliminate the micturition reflex. During the operation, isoflurane anesthesia was added as necessary. The rats were fixed at a dorsal position, and two catheters (PE-100; Clay Adams) were indwelled in the bladder. One of the catheters was filled with saline stained with Evans Blue dye (Merck), and connected to a 50 ml syringe (TERUMO CORPORATION) fixed on an infusion pump (KD Scientific) via a three-way cock. The other catheter was connected to a pressure transducer (DX-100; NIHON KOHDEN CORPORATION), and signals of the transducer were transmitted to computer via an amplifier (blood pressure amplification unit AP-641G; NIHON KOHDEN CORPORATION) and a data analyzer (BIOPAC; MP100), and recorded on a hard disk. The data was analyzed on the computer using a software (BIOPAC; AcqKnowledge). A DMA/PEG400 (1:1) solution was intravenously administered to the rats at 0.5 mL/kg. From 10 min later, saline was injected into the bladder using the infusion pump at a rate of 360 ml/hr, infusion was stopped on the moment fluid leakage from the urethral meatus was observed, and the solution in the bladder was discharged by opening the three-way cock. The maximum intravesical pressure during infusion was taken as a leak point pressure, which was measured repeatedly until the value was stabilized, and the average value of the last three measures was taken as the data. […] Williams test was used for statistical calculation.

[1] = tested on: female spinal cord-transected rats with bilaterally transected hypogastric nerve and pudendal nerve; test: organ prolapse: urethral closure response induced by increased intravesical pressure (Experimental Example 7a); assay type: in vivo, rat; design: unit not given here; conditions: 1 mg/kg, i.v.; evaluated 10 min after administration
Description: The effect of the compound of the present invention for organ prolapse was measured by examining the enhancement of urethral closure response by pelvic floor muscles (iliococcygeal muscle, pubococcygeal muscle etc.) induced by an increased intravesical pressure, by compound administration. The enhancing action of the compound on urethral closure response induced by an increased intravesical pressure was measured using female spinal cord-transected rats with bilaterally transected hypogastric nerve and pudendal nerve. SD female rats (body weight 246-298 g) were anesthetized with urethane, and the spinal cord was cut at T8-9 level to eliminate the micturition reflex. During the operation, isoflurane anesthesia was added as necessary. After abdominal section, bladder neck was ligated with a suture thread, and then the hypogastric nerve and pudendal nerve were bilaterally transected. […] The changes in the topical pressure within the urethra (hereinafter conveniently indicated as urethral pressure) as measured by the microtip transducer was transmitted to a computer via an amplifier and a data intake device, and recorded on a hard disc. […] The reaction of the urethra induced by an increased intravesical pressure was measured repeatedly until the value is stabilized, and the average of the last 2 measures was taken as the value before drug administration. […]

[2] = target: serotonin 5-HT2C receptor (Homo sapiens, UniProt P28335, I156V/I160V/N158S); assay type: cell-based
Chain of serotonin 5-HT2C receptor (P28335 33-458 I156V/N158S/I160V limits assumed): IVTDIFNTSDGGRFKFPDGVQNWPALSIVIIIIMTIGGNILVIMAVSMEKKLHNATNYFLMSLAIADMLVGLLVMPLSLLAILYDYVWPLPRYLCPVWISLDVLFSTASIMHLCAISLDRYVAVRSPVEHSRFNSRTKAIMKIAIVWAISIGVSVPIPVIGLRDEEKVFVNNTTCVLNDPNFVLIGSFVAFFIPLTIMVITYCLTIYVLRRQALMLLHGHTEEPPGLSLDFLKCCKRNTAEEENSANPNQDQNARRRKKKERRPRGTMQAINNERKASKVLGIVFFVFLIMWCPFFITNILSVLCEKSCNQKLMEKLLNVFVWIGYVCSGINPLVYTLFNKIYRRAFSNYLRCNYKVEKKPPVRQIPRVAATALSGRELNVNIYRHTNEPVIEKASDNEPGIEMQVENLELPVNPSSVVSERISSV

[3] = tested on: male F344 rats (DIO-F344 rat); test: obesity: body weight and food consumption in high-fat diet-loaded rats, osmotic pump (Experimental Example 6b); assay type: in vivo; conditions: subcutaneous osmotic pump; for body weight loss (%): 14 days
Description: The effect of the compound of the present invention for obesity was measured using high-fat diet-loaded rats based on the effects on body weight and food consumption. 38 to 60-week-old male F344 rats (DIO-F344 rat) raised on a […] fat high-fat diet (D12451, Research Diets) from 7 weeks of age were used. They were grouped based on the body weight one day before operation. The compound of Example 8 was dissolved in saline, filled in an osmotic pump (Alzet osmotic pump 2mL2 type), and subcutaneously implanted under isoflurane anesthesia. The body weight was measured on completion of the operation, and measured again at 14 days postoperation. In addition, the amount of remaining food was measured, and food consumption for 14 days was measured. For statistical calculation, Williams test was used.

In the case of C[C@@H]1COCCN1c1cnc2c(n1)OCCNC2.Cl [Example 5, 3-[(3R)-3-methylmorpholin-4-yl]-6,7,8,9-tetrahydropyrazino[2,3-f][1,4]oxazepine hydrochloride], the “suppression of food consumption as compared to the control group” value (Male F344 rats) is reported as 21.8%, the “Change in leak point pressure (cmH2O)” value (SD female rats; 0.03 mg/kg) is reported as 5.2 ± 1.7 cmH2O and the “Change in leak point pressure (cmH2O)” value (SD female rats; 0.1 mg/kg) is reported as 9.1 ± 1.3 cmH2O. For the same compound, the “Change in leak point pressure (cmH2O)” value (SD female rats; 0.3 mg/kg) was 13.6 ± 2.4 cmH2O, the “Change in leak point pressure (cmH2O)” value (SD female rats; 1 mg/kg) was 19.6 ± 1.9 cmH2O and the “urethral closure respons (ratio relative to value before administration)” value [1] was 227 ± 32. For the same compound, the “ratio (%) relative to maximum response by 5-HT (1 μM)” value [2] was 95%.
With CC(C)N(C)c1cnc2c(n1)OCCNC2.Cl [Example 8, N-methyl-N-(1-methylethyl)-6,7,8,9-tetrahydropyrazino[2,3-f][1,4]oxazepin-3-amine hydrochloride] the “Change in leak point pressure (cmH2O)” value (SD female rats; 0.1 mg/kg) was 5.4 ± 1.6 cmH2O, the “Change in leak point pressure (cmH2O)” value (SD female rats; 0.3 mg/kg) was 10.8 ± 3.3 cmH2O and the “Change in leak point pressure (cmH2O)” value (SD female rats; 1 mg/kg) was 17.3 ± 3.4 cmH2O. The “Change in leak point pressure (cmH2O)” value (SD female rats; 3 mg/kg) was 23.6 ± 3.3 cmH2O, the “urethral closure respons (ratio relative to value before administration)” value [1] was 192 ± 13 and the “ratio (%) relative to maximum response by 5-HT (1 μM)” value [2] was 95%. The “food consumption/14 days” value ([3]; 3 mg/kg/day) was 150 ± 7 g, the “body weight loss (%)” value ([3]; 3 mg/kg/day) was 4.8 ± 0.5% and the “food consumption/14 days” value ([3]; 10 mg/kg/day) was 140 ± 6 g. For the same compound, the “body weight loss (%)” value ([3]; 10 mg/kg/day) was 4.9 ± 0.3%, the “food consumption/14 days” value ([3]; 30 mg/kg/day) was 110 ± 2 g and the “body weight loss (%)” value ([3]; 30 mg/kg/day) was 7.5 ± 0.3 %.
For CC(C)Oc1cnc2c(n1)OCCNC2.Cl [Example 2, 3-(1-methylethoxy)-6,7,8,9-tetrahydropyrazino[2,3-f][1,4]oxazepine hydrochloride], the “ratio (%) relative to maximum response by 5-HT (1 μM)” value [2] was 93%.
In the case of CC[C@@H]1COCCN1c1cnc2c(n1)OCCNC2.Cl [Example 9, 3-[(3R)-3-ethylmorpholin-4-yl]-6,7,8,9-tetrahydropyrazino[2,3-f][1,4]oxazepine hydrochloride], the “ratio (%) relative to maximum response by 5-HT (1 μM)” value [2] is reported as 103%.
With C[C@H]1CNCc2ncc(N3CCOCC3)nc2O1 [Example 6, (6S)-6-methyl-3-(morpholin-4-yl)-6,7,8,9-tetrahydropyrazino[2,3-f][1,4]oxazepine] the “ratio (%) relative to maximum response by 5-HT (1 μM)” value [2] was 102%.
Cl.c1nc2c(nc1C1CC1)OCCNC2 [Example 10, 3-cyclopropyl-6,7,8,9-tetrahydropyrazino[2,3-f][1,4]oxazepine hydrochloride] was tested, and the “ratio (%) relative to maximum response by 5-HT (1 μM)” value [2] was 89%.
For C[C@@H]1COCCN1c1cnc2c(n1)O[C@@H](C)CNC2.Cl [Example 7, (6S)-6-methyl-3-[(3R)-3-methylmorpholin-4-yl]-6,7,8,9-tetrahydropyrazino[2,3-f][1,4]oxazepine hydrochloride], the “ratio (%) relative to maximum response by 5-HT (1 μM)” value [2] was 108%.
